Laboratory results taken from the supplement of paper PMC11451515.

Key:
Conditions in all cases: 48 h
[1] = system: NOMO1; assay: cell viability relative to DMSO control; higher = less cytotoxic
Outline: (§1)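 Before seeding, each leukemia line was adapted for at least four passages in each medium. NOMO1 or SEM cells (500 cells/well) and P12-Ichikawa cells (1000 cells/well) went into 1536-well plates at 5 μl, then received library compounds in DMSO by pin dosing across 11 threefold concentrations, 47 μM to 0.79 nM. Readout was CellTiter-Glo One luminescence after 48 h at 37°C, and viability is given as a per-plate percentage of DMSO wells, with cell-free wells as background.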

[2] = system: P12-Ichikawa; assay: as above
Outline: as §1

[3] = system: SEM cells; assay: as above
Outline: as §1

[4] = system: NOMO1; assay: AUC of viability dose-response curve (% viability x log10 dose units); higher = less sensitive
Outline: (§2)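 In 1536-well plates, leukemia cells adapted to each medium (500 or 1000 cells/well) were exposed for 48 h at 37°C to library compounds in DMSO across 11 threefold doses, 47 μM down to 0.79 nM. Viability was read by CellTiter-Glo One luminescence and normalised per plate to DMSO and cell-free wells. A four-parameter log-logistic fit over log10 doses was integrated by trapezoidal rule. This yielded the area under the curve, with over-full-viability curves scaled and quality-control failures dropped.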

[5] = system: P12-Ichikawa; assay: as above
Outline: as §2

[6] = system: SEM cells; assay: as above
Outline: as §2

CCC(=C/[C@H](C)C/C=C/C(C)=C/[C@@H](C)C(=O)[C@@H](C)[C@H](O)[C@@H](C)C/C(C)=C/C(=O)O)/C=C/[C@@H]1OC(=O)C=C[C@@H]1C
cell viability [%]
Conditions | [1] | [2] | [3]
HPLM + 10% dialyzed FBS, 0.000781 µM | 118 | 110 | 59.9
HPLM + 10% dialyzed FBS, 0.00234 µM | 115 | 114 | 88.8
HPLM + 10% dialyzed FBS, 0.00702 µM | 109 | 116 | 77.7
HPLM + 10% dialyzed FBS, 0.0211 µM | 107 | 117 | 79.9
HPLM + 10% dialyzed FBS, 0.0632 µM | 118 | 118 | 89.2
HPLM + 10% dialyzed FBS, 0.19 µM | 123 | 115 | 75.7
HPLM + 10% dialyzed FBS, 0.569 µM | 125 | 129 | 62.4
HPLM + 10% dialyzed FBS, 1.71 µM | 83.8 | 109 | 20.6
HPLM + 10% dialyzed FBS, 5.12 µM | 4.07 | 6.55 | 5.63
HPLM + 10% dialyzed FBS, 15.4 µM | 2.4 | 4.69 | 5.09
HPLM + 10% dialyzed FBS, 46.1 µM | 13.2 | 7.83 | 7.74
RPMI 5 mM glucose + 10% FBS, 0.000781 µM | 104 | 106 | 83
RPMI 5 mM glucose + 10% FBS, 0.00234 µM | 101 | 119 | 96.4
RPMI 5 mM glucose + 10% FBS, 0.00702 µM | 110 | 111 | 93.2
RPMI 5 mM glucose + 10% FBS, 0.0211 µM | 99.2 | 127 | 95.3
RPMI 5 mM glucose + 10% FBS, 0.0632 µM | 114 | 121 | 106
RPMI 5 mM glucose + 10% FBS, 0.19 µM | 114 | 118 | 70.4
RPMI 5 mM glucose + 10% FBS, 0.569 µM | 109 | 114 | 45.5
RPMI 5 mM glucose + 10% FBS, 1.71 µM | 110 | 96.1 | 13
RPMI 5 mM glucose + 10% FBS, 5.12 µM | 3.02 | 5.34 | 6.23
RPMI 5 mM glucose + 10% FBS, 15.4 µM | 1.72 | 3.16 | 5.5
RPMI 5 mM glucose + 10% FBS, 46.1 µM | 14.7 | 8.25 | 10.9
RPMI 5 mM glucose + 10% dialyzed FBS, 0.000781 µM | 99.7 | 99.9 | 84
RPMI 5 mM glucose + 10% dialyzed FBS, 0.00234 µM | 108 | 107 | 86
RPMI 5 mM glucose + 10% dialyzed FBS, 0.00702 µM | 113 | 109 | 95.4
RPMI 5 mM glucose + 10% dialyzed FBS, 0.0211 µM | 107 | 115 | 91.1
RPMI 5 mM glucose + 10% dialyzed FBS, 0.0632 µM | 122 | 107 | 82.9
RPMI 5 mM glucose + 10% dialyzed FBS, 0.19 µM | 120 | 111 | 77.7
RPMI 5 mM glucose + 10% dialyzed FBS, 0.569 µM | 120 | 108 | 52
RPMI 5 mM glucose + 10% dialyzed FBS, 1.71 µM | 90.2 | 91.1 | 18.8
RPMI 5 mM glucose + 10% dialyzed FBS, 5.12 µM | 3.22 | 5.62 | 7.36
RPMI 5 mM glucose + 10% dialyzed FBS, 15.4 µM | 2.11 | 4.96 | 6.69
RPMI 5 mM glucose + 10% dialyzed FBS, 46.1 µM | 14.7 | 13.8 | 8.55

AUC of viability dose-response curve
Conditions | HPLM + 10% dialyzed FBS | RPMI 5 mM glucose + 10% FBS | RPMI 5 mM glucose + 10% dialyzed FBS
[4] | 351 | 365 | 355
[5] | 361 | 355 | 359

CC(C)(C)c1cnc(CSc2cnc(NC(=O)C3CCNCC3)s2)o1
AUC of viability dose-response curve
Conditions | [4] | [5] | [6]
HPLM + 10% dialyzed FBS | 289 | 250 | 297
RPMI 5 mM glucose + 10% FBS | 321 | 321 | 309
RPMI 5 mM glucose + 10% dialyzed FBS | 312 | 330 | 311

COc1ccc2c(c1)c(CC(=O)O)c(C)n2C(=O)c1ccc(Cl)cc1
AUC of viability dose-response curve
Conditions | [4] | [5] | [6]
HPLM + 10% dialyzed FBS | 461 | 440 | 459
RPMI 5 mM glucose + 10% FBS | 473 | 466 | 432
RPMI 5 mM glucose + 10% dialyzed FBS | 460 | 466 | 466

CC(=O)Nc1ccc(O)cc1
AUC of viability dose-response curve
Conditions | [4] | [5] | [6]
HPLM + 10% dialyzed FBS | 464 | 455 | 472
RPMI 5 mM glucose + 10% FBS | 459 | 458 | 476
RPMI 5 mM glucose + 10% dialyzed FBS | 463 | 470 | 467

Nc1ncnc2ccccc12
cell viability [%]
Conditions | [1] | [2] | [3]
HPLM + 10% dialyzed FBS, 0.000781 µM | 77.8 | 87.8 | 83.3
HPLM + 10% dialyzed FBS, 0.00234 µM | 100 | 92.3 | 87.9
HPLM + 10% dialyzed FBS, 0.00702 µM | 100 | 95.5 | 93.9
HPLM + 10% dialyzed FBS, 0.0211 µM | 35.2 | 9.38 | 18.9
HPLM + 10% dialyzed FBS, 0.0632 µM | 97.8 | 106 | 97
HPLM + 10% dialyzed FBS, 0.19 µM | 87 | 100 | 97.1
HPLM + 10% dialyzed FBS, 0.569 µM | 88.3 | 106 | 109
HPLM + 10% dialyzed FBS, 1.71 µM | 101 | 105 | 91.5
HPLM + 10% dialyzed FBS, 5.12 µM | 88.4 | 105 | 90.5
HPLM + 10% dialyzed FBS, 15.4 µM | 105 | 100 | 93.4
HPLM + 10% dialyzed FBS, 46.1 µM | 105 | 111 | 99.5
RPMI 5 mM glucose + 10% FBS, 0.000781 µM | 84.2 | 84.2 | 97.9
RPMI 5 mM glucose + 10% FBS, 0.00234 µM | 85.9 | 90.7 | 98.7
RPMI 5 mM glucose + 10% FBS, 0.00702 µM | 87.6 | 88.3 | 118
RPMI 5 mM glucose + 10% FBS, 0.0211 µM | 18.6 | 13.7 | 13.2
RPMI 5 mM glucose + 10% FBS, 0.0632 µM | 97.6 | 104 | 123
RPMI 5 mM glucose + 10% FBS, 0.19 µM | 91.4 | 102 | 102
RPMI 5 mM glucose + 10% FBS, 0.569 µM | 101 | 105 | 96.9
RPMI 5 mM glucose + 10% FBS, 1.71 µM | 95.4 | 97.2 | 123
RPMI 5 mM glucose + 10% FBS, 5.12 µM | 88.3 | 97.8 | 99.1
RPMI 5 mM glucose + 10% FBS, 15.4 µM | 90.9 | 104 | 122
RPMI 5 mM glucose + 10% FBS, 46.1 µM | 81.7 | 104 | 107
RPMI 5 mM glucose + 10% dialyzed FBS, 0.000781 µM | 88.1 | 86.2 | 73.9
RPMI 5 mM glucose + 10% dialyzed FBS, 0.00234 µM | 84.1 | 91.8 | 76.3
RPMI 5 mM glucose + 10% dialyzed FBS, 0.00702 µM | 79.2 | 93.5 | 89.6
RPMI 5 mM glucose + 10% dialyzed FBS, 0.0211 µM | 44.1 | 28.2 | 16.7
RPMI 5 mM glucose + 10% dialyzed FBS, 0.0632 µM | 81.6 | 102 | 94.4
RPMI 5 mM glucose + 10% dialyzed FBS, 0.19 µM | 86.7 | 102 | 86.2
RPMI 5 mM glucose + 10% dialyzed FBS, 0.569 µM | 89 | 100 | 101
RPMI 5 mM glucose + 10% dialyzed FBS, 1.71 µM | 89.9 | 92.3 | 98.6
RPMI 5 mM glucose + 10% dialyzed FBS, 5.12 µM | 90.6 | 103 | 91.4
RPMI 5 mM glucose + 10% dialyzed FBS, 15.4 µM | 98.4 | 99.1 | 97.6
RPMI 5 mM glucose + 10% dialyzed FBS, 46.1 µM | 96 | 94 | 99.6

CC(C)(O)Cn1c(NC(=O)c2ccc(-c3cn[nH]c3)s2)nc2cc(CN3CCOCC3)ccc21
AUC of viability dose-response curve
Conditions | [4] | [5] | [6]
HPLM + 10% dialyzed FBS | 352 | 365 | 226
RPMI 5 mM glucose + 10% FBS | 369 | 364 | 206
RPMI 5 mM glucose + 10% dialyzed FBS | 368 | 364 | 207
